Test system: cotyledons
Assay: Growth of excised cucumber cotyledons (fresh biomass) in treatment solution
Format: in vivo, Cucumbers
Details: for Mean cotyledon biomass: 3 days in the dark at 25° C., 20 cotyledons per treatment; for Observed efficacy (%): % biomass increase compared to 0.5% DMSO control; for growth stimulation of the cotyledons: applied alone
Procedure: The effect of dicamba as an example for compound (I), pyraclostrobin as an example for compound (II) and the respective mixture comprising both compounds on the growth of cotyledons, as one indicator of a plant's health, was evaluated. Cucumbers were sown and germinated in the dark at 25° C. for 4 days. Subsequently, 20 cotyledons per treatment were cut and placed in a Petri dish containing 20 ml of the treatment solution. Control cotyledons were treated with the 0.5% DMSO solution. Following the incubation in the dark at 25° C. for 3 days the cotyledons were weight and the fresh biomass recorded (table 1).
The efficacy of the tested compounds was calculated as % of biomass increase compared to the control:
E=(a/b−1)*100 • a corresponds to the biomass (mg) of the treated cotyledons after incubation; • b corresponds to the biomass (mg) of untreated cotyledons after incubation (control).
The expected efficacies of the combinations of the active ingredients were estimated using Colby's formula (Colby, S. R., Calculating synergistic and antagonistic responses of herbicide combinations, Weeds, 15, pp. 20-22, 1967) and compared with the observed efficacies.
Colby's formula: E=x+y−x*y/100 • E expected efficacy, expressed in % of the untreated control, when using the mixture comprising the compounds A and B at the concentrations a and b; • x efficacy, expressed in % of the untreated control, when using compound A at the concentration a; • y efficacy, expressed in % of the untreated control, when using compound B at the concentration b.

Structure (SMILES)	Mean cotyledon biomass (1.25 ppm in 0.5% DMSO)	Observed efficacy (%) (1.25 ppm)	growth stimulation of the cotyledons	Mean cotyledon biomass (2 ppm in 0.5% DMSO)	Observed efficacy (%) (2 ppm)
COc1c(Cl)ccc(Cl)c1C(=O)O [Dicamba, dicamba]	69.9 mg	−0.8%	no growth stimulation		
COC(=O)N(OC)c1ccccc1COc1ccn(-c2ccc(Cl)cc2)n1 [Pyraclostrobin, pyraclostrobin]			no growth stimulation	67.7 mg	−3.9%
